Results as given in patent US20100227858A1, “TRISUBSTITUTED PYRIMIDINE DERIVATIVES FOR THE TREATMENT OF PROLIFERATIVE DISEASES” (ASTRAZENECA AB, priority 2007, published 2010).
pIC50: −log10 of the molar value.

What follows are molecules tested against recombinant mTOR (Homo sapiens, UniProt P42345) (assay: In vitro mTOR kinase assay, Test (a)(i) (AlphaScreen)). Details: enzyme assay; values may represent the average of two or more measurements; read-out: Test (a)(i) IC50.
recombinant mTOR, sequence (P42345 1362-2549): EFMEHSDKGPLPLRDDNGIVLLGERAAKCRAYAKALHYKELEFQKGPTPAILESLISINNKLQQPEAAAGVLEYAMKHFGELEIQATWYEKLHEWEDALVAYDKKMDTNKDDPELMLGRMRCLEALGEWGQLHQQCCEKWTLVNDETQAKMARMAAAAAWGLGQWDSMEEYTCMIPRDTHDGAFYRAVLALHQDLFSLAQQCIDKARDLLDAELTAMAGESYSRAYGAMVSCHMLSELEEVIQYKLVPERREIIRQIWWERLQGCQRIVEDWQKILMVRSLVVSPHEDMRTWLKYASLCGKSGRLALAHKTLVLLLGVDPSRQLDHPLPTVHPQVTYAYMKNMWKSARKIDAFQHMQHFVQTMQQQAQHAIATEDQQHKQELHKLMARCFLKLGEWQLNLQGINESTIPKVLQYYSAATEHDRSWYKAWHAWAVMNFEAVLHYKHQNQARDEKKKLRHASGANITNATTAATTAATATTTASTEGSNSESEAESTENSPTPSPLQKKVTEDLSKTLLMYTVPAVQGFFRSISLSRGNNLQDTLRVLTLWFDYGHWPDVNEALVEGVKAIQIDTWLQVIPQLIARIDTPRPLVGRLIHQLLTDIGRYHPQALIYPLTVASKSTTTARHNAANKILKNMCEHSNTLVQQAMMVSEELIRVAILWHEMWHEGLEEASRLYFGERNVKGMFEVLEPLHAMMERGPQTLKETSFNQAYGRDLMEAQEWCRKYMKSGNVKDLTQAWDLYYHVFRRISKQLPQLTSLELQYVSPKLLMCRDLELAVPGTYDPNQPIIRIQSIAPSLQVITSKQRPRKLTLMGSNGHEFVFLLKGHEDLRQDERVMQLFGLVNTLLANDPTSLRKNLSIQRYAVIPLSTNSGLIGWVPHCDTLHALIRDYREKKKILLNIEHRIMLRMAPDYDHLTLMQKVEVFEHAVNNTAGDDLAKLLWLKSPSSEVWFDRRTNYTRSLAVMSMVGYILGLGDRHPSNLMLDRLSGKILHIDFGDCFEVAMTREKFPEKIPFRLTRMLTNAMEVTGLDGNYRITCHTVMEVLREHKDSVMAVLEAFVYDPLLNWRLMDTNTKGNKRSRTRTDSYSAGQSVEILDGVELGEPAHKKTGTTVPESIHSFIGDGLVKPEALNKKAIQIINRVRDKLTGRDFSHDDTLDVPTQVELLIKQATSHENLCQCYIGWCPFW
Assay type: biochemical
Experimental: (a)(i) In Vitro mTOR Kinase Assay
The HEK293 FLAG-tagged mTOR (1362-2549) stable cell line was routinely maintained at 37° C. with 5% CO2 up to a confluency of 70-90% in Dulbecco's modified Eagle's growth medium (DMEM; Invitrogen Limited, Paisley, UK Catalogue No. 41966-029) containing 10% heat-inactivated foetal calf serum (FCS; Sigma, Poole, Dorset, UK, Catalogue No. F0392), 1% L-glutamine (Gibco, Catalogue No. 25030-024) and 2 mg/ml Geneticin (G418 sulfate; Invitrogen Limited, UK Catalogue No. 10131-027). Following expression in the mammalian HEK293 cell line, expressed protein was purified using the FLAG epitope tag using standard purification techniques.
A 30 μl mixture of recombinant purified mTOR enzyme, 1 μM biotinylated peptide substrate (Biotin-Ahx-[…]NH2; Bachem UK Ltd), ATP (20 μM) and a buffer solution [comprising Tris-HCl pH7.4 buffer (50 mM), EGTA (0.1 mM), bovine serum albumin (0.5 mg/mL), DTT (1.25 mM) and manganese chloride (10 mM)] was agitated at room temperature for 90 minutes.
These assay solutions were incubated for 2 hours at room temperature.
Phosphorylated biotinylated peptide is formed in situ as a result of mTOR mediated phosphorylation. The phosphorylated biotinylated peptide that is associated with AlphaScreen Streptavidin donor beads forms a complex with the p70 S6 Kinase (T389) 1A5 Monoclonal Antibody that is associated with Alphascreen Protein A acceptor beads. […] Accordingly, the presence of mTOR kinase activity results in an assay signal. In the presence of an mTOR kinase inhibitor, signal strength is reduced.
`COc1ccc(C(=O)Nc2nc(N3CCOC[C@@H]3C)cc(N3CCOC[C@@H]3C)n2)cc1F` [Example 16, N-[4,6-Bis[(3S)-3-methylmorpholin-4-yl]pyrimidin-2-yl]-3-fluoro-4-methoxy-benzamide] gave a pIC50 of 5.61.
For `C[C@H]1COCCN1c1cc(NC(=O)c2ccc(NC(=O)Nc3ccccc3)cc2)nc(N2CCOC[C@@H]2C)n1` [Example 17, N-[2,6-Bis[(3S)-3-methylmorpholin-4-yl]pyrimidin-4-yl]-4-(phenylcarbamoylamino)benzamide], the pIC50 was 5.03.
`C[C@H]1COCCN1c1cc(N2CCOC[C@@H]2C)nc(NC(=O)c2ccc(NC(=O)Nc3ccccc3)cc2)n1` [Example 18, N-[4,6-Bis[(3S)-3-methylmorpholin-4-yl]pyrimidin-2-yl]-4-(phenylcarbamoylamino)benzamide] was tested, and the pIC50 was 5.95.
In the case of `COc1ccc(C(=O)Nc2cc(N3CCOC[C@@H]3C)nc(N3CCOC[C@@H]3C)n2)cc1` [Example 19, N-[2,6-Bis[(3S)-3-methylmorpholin-4-yl]pyrimidin-4-yl]-4-methoxy-benzamide], the pIC50 was 6.74.
In the case of `C[C@@H]1CN(c2nc(CS(C)(=O)=O)cc(N3CCOC[C@@H]3C)n2)C[C@H](C)O1` [Example 20, 2-[(2R,6S)-2,6-Dimethylmorpholin-4-yl]-4-[(3S)-3-methylmorpholin-4-yl]-6-(methylsulfonylmethyl)pyrimidine], the pIC50 was 5.78.
`C[C@H]1COCCN1c1cc(CS(C)(=O)=O)nc(N2CCCC(O)C2)n1` (stereo partly drawn) [Example 21, 1-[4-[(3S)-3-Methylmorpholin-4-yl]-6-(methylsulfonylmethyl)pyrimidin-2-yl]piperidin-3-ol] gave a pIC50 of 5.64.
`C[C@H]1COCCN1c1cc(CS(C)(=O)=O)nc(N2CCOCC2)n1` [Example 22, 4-[(3S)-3-methylmorpholin-4-yl]-6-(methylsulfonylmethyl)-2-morpholin-4-yl-pyrimidine] showed a pIC50 of 5.77.
With `C[C@H]1COCCN1c1cc(CS(C)(=O)=O)nc(-c2cnc3[nH]ccc3c2)n1` [Example 23, 3-[4-[(3S)-3-Methylmorpholin-4-yl]-6-(methylsulfonylmethyl)pyrimidin-2-yl]-5,7-diazabicyclo[4.3.0]nona-1,3,5,8-tetraene] the pIC50 was 7.42.
`C[C@H]1COCCN1c1cc(CS(C)(=O)=O)nc(-c2ccc3[nH]ccc3c2)n1` [Example 24] gave a pIC50 of 6.52.
`C[C@@H]1COCCN1c1cc(CS(C)(=O)=O)nc(-c2ccc3[nH]ccc3c2)n1` [Example 25, 5-[4-[(3R)-3-methylmorpholin-4-yl]-6-(methylsulfonylmethyl)pyrimidin-2-yl]-1H-indole] was tested, and the pIC50 was 6.41.
With `CCC(C)S(=O)(=O)Cc1cc(N2CCOC[C@@H]2C)nc(-c2ccc3[nH]ccc3c2)n1` (stereo partly drawn) [Example 26, 5-[4-(Butan-2-ylsulfonylmethyl)-6-[(3S)-3-methylmorpholin-4-yl]pyrimidin-2-yl]-1H-indole] the pIC50 was 5.86.
`CCC(C)[S+]([O-])Cc1cc(N2CCOC[C@H]2C)nc(-c2ccc3[nH]ccc3c2)n1` (stereo partly drawn) [Example 27, 5-[4-(butan-2-ylsulfinylmethyl)-6-[(3R)-3-methylmorpholin-4-yl]pyrimidin-2-yl]-1H-indole] was tested, and the pIC50 was 5.93.
In the case of `CC(C)S(=O)(=O)Cc1cc(N2CCOC[C@H]2C)nc(-c2ccc3[nH]ccc3c2)n1` [Example 28, 5-[4-[(3R)-3-methylmorphlin-4-yl]-6-(propan-2-ylsulfonylmethyl)pyrimidin-2-yl]-1H-indole], the pIC50 was 6.20.
With `CCS(=O)(=O)Cc1cc(N2CCOC[C@H]2C)nc(-c2ccc3[nH]ccc3c2)n1` [Example 29, 5-[4-(ethylsulfonylmethyl)-6-[(3R)-3-methylmorpholin-4-yl]pyrimidin-2-yl]-1H-indole] the pIC50 was 6.45.
For `C[C@H]1COCCN1c1cc(CS(C)(=O)=O)nc(Nc2cc[nH]n2)n1` [Example 30, 4-[(3S)-3-Methylmorpholin-4-yl]-6-(methylsulfonylmethyl)-N-(1H-pyrazol-3-yl)pyrimidin-2-amine], the pIC50 was 6.05.
With `C[C@H]1COCCN1c1cc(CS(C)(=O)=O)nc(-c2ccc(-c3cn[nH]c3)cc2)n1` [Example 31, 4-[(3S)-3-Methylmorpholin-4-yl]-6-(methylsulfonylmethyl)-2-[4-(1H-pyrazol-4-yl)phenyl]pyrimidine] the pIC50 was 6.00.
Work on `C[C@H]1COCCN1c1cc(CS(C)(=O)=O)nc(-c2cccc(-c3cn[nH]c3)c2)n1` [Example 32, 4-[(3S)-3-Methylmorpholin-4-yl]-6-(methylsulfonylmethyl)-2-[3-(1H-pyrazol-4-yl)phenyl]pyrimidine] yielded a pIC50 of 6.36.
`C[C@H]1COCCN1c1cc(CS(C)(=O)=O)nc(-c2ccc3[nH]cc(C(N)=O)c3c2)n1` [Example 33, 5-[4-[(3S)-3-Methylmorpholin-4-yl]-6-(methylsulfonylmethyl)pyrimidin-2-yl]-1H-indole-3-carboxamide] showed a pIC50 of 6.81.
With `C[C@H]1COCCN1c1cc(CS(C)(=O)=O)nc(-c2cnc(-c3cn[nH]c3)s2)n1` [Example 34, 4-[(3S)-3-Methylmorpholin-4-yl]-6-(methylsulfonylmethyl)-2-[2-(1H-pyrazol-4-yl)-1,3-thiazol-5-yl]pyrimidine] the pIC50 was 6.24.
Molecule `C[C@H]1COCCN1c1cc(CS(C)(=O)=O)nc(-c2ccc3c(C(N)=O)c[nH]c3c2)n1` [Example 36, 6-[4-[(3S)-3-Methylmorpholin-4-yl]-6-(methylsulfonylmethyl)pyrimidin-2-yl]-1H-indole-3-carboxamide] has a pIC50 of 5.79.
`C[C@H]1COCCN1c1cc(CS(C)(=O)=O)nc(-c2ccc3[nH]c(C(N)=O)cc3c2)n1` [Example 37, 5-[4-[(3S)-3-Methylmorpholin-4-yl]-6-(methylsulfonylmethyl)pyrimidin-2-yl]-1H-indole-2-carboxamide] gave a pIC50 of 6.47.
Molecule `C[C@H]1COCCN1c1cc(CS(C)(=O)=O)nc(-c2ccc3cc(C(N)=O)[nH]c3c2)n1` [Example 38, 6-[4-[(3S)-3-Methylmorpholin-4-yl]-6-(methylsulfonylmethyl)pyrimidin-2-yl]-1H-indole-2-carboxamide] has a pIC50 of 5.27.
`C[C@H]1COCCN1c1cc(C(C)(C)S(C)(=O)=O)nc(-c2ccc3[nH]cnc3c2)n1` [Example 39, 5-[4-[(3S)-3-Methylmorpholin-4-yl]-6-(2-methylsulfonylpropan-2-yl)pyrimidin-2-yl]-1H-benzoimidazole] showed a pIC50 of 6.72.
For `C[C@H]1COCCN1c1cc(C(C)(C)S(C)(=O)=O)nc(-c2cnc3[nH]ccc3c2)n1` [Example 40, 3-[4-[(3S)-3-Methylmorpholin-4-yl]-6-(2-methylsulfonylpropan-2-yl)pyrimidin-2-yl]-5,7-diazabicyclo[4.3.0]nona-1,3,5,8-tetraene], the pIC50 was 6.23.
`C[C@H]1COCCN1c1cc(C(C)(C)S(C)(=O)=O)nc(-c2ccc3[nH]ccc3c2)n1` [Example 41, 5-[4-[(3S)-3-methylmorpholin-4-yl]-6-(2-methylsulfonylpropan-2-yl)pyrimidin-2-yl]-1H-indole] gave a pIC50 of 6.93.
With `C[C@H]1COCCN1c1cc(C(C)(C)S(C)(=O)=O)nc(-c2cccc3[nH]ccc23)n1` [Example 42, 4-[4-[(3S)-3-methylmorpholin-4-yl]-6-(2-methylsulfonylpropan-2-yl)pyrimidin-2-yl]-1H-indole] the pIC50 was 6.47.
`C[C@H]1COCCN1c1cc(C(C)(C)S(C)(=O)=O)nc(-c2ccc3cc[nH]c3c2)n1` [Example 43, 6-[4-[(3S)-3-methylmorpholin-4-yl]-6-(2-methylsulfonylpropan-2-yl)pyrimidin-2-yl]-1H-indole] showed a pIC50 of 6.06.
For `C[C@H]1COCCN1c1cc(CS(=O)(=O)c2ccccc2)nc(-c2cccc3[nH]ccc23)n1` [Example 44, 4-[4-(Benzenesulfonylmethyl)-6-[(3S)-3-methylmorpholin-4-yl]pyrimidin-2-yl]-1H-indole], the pIC50 was 6.44.
`C[C@H]1COCCN1c1cc(CS(=O)(=O)c2ccccc2)nc(-c2ccc3[nH]ccc3c2)n1` [Example 45, 5-[4-(benzenesulfonylmethyl)-6-[(3S)-3-methylmorpholin-4-yl]pyrimidin-2-yl]-1H-indole] was tested, and the pIC50 was 6.92.
`C[C@H]1COCCN1c1cc(CS(=O)(=O)c2ccccc2)nc(-c2cnc3[nH]ccc3c2)n1` [Example 46, 3-[4-(benzenesulfonylmethyl)-6-[(3S)-3-methylmorpholin-4-yl]pyrimidin-2-yl]-5,7-diazabicyclo[4.3.0]nona-1,3,5,8-tetraene] gave a pIC50 of 6.03.
Molecule `C[C@H]1COCCN1c1cc(CS(=O)(=O)c2ccccc2)nc(-c2ccc3cc[nH]c3c2)n1` [Example 47, 6-[4-(benzenesulfonylmethyl)-6-[(3S)-3-methylmorpholin-4-yl]pyrimidin-2-yl]-1H-indole] has a pIC50 of 6.29.
`C[C@H]1COCCN1c1cc(CS(=O)(=O)c2ccccc2)nc(-c2ccc3[nH]cnc3c2)n1` [Example 48, 5-[4-(benzenesulfonylmethyl)-6-[(3S)-3-methylmorpholin-4-yl]pyrimidin-2-yl]-1H-benzoimidazole] was tested, and the pIC50 was 6.97.
